#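 Grown in 96-well plates, cells were treated for 48 hours with each compound at five concentrations. Insufficient inhibition: endpoint recorded as highest concentration tested. GI50 marks 50% less growth.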 Activity calls are given as the source filed them. No stated cut-off is given here; in the data, active = GI50 up to about 1.1 µM and inactive = higher.
# Experiments:
# Experiment in all cases: inhibition of tumour cell growth, NCI panel, 48 h
# [1] = system: 786-0
# [2] = system: A549
# [3] = system: ACHN
# [4] = system: BT-549
# [5] = system: CCRF-CEM
# [6] = system: COLO 205
# [7] = system: DU-145
# [8] = system: EKVX
# [9] = system: HCC 2998
# [10] = system: HCT-116
# [11] = system: HCT-15
# [12] = system: HOP-62
# [13] = system: HOP-92
# [14] = system: HT-29
# [15] = system: Hs-578T
# [16] = system: IGROV-1
# [17] = system: K562
# [18] = system: KM12
# [19] = system: LOX IMVI
# [20] = system: M14
# [21] = system: MCF7
# [22] = system: MDA-MB-231
# [23] = system: MDA-MB-435
# [24] = system: MDA-N
# [25] = system: MOLT-4
# [26] = system: NCI-H23
# [27] = system: NCI-H522
# [28] = system: NCI/ADR-RES
# [29] = system: OVCAR-3
# [30] = system: OVCAR-4
# [31] = system: OVCAR-5
# [32] = system: OVCAR-8
# [33] = system: PC-3
# [34] = system: RPMI-8226
# [35] = system: RXF 393
# [36] = system: SF-268
# [37] = system: SF-295
# [38] = system: SF-539
# [39] = system: SK-MEL-28
# [40] = system: SK-MEL-2
# [41] = system: SK-MEL-5
# [42] = system: SK-OV-3
# [43] = system: SN12C
# [44] = system: SNB-19
# [45] = system: SNB-75
# [46] = system: SR
# [47] = system: SW-620
# [48] = system: TK-10
# [49] = system: U-251
# [50] = system: UACC-257
# [51] = system: UACC-62
# [52] = system: UO-31
# [53] = system: CAKI-1
# [54] = system: HL-60
# [55] = system: Malme-3M
# [56] = system: NCI-H226
# [57] = system: NCI-H460
# [58] = system: A498
smiles,measurement,setting,value
O=c1[nH]nc(-c2ccccc2)n1/N=C/c1c(O)ccc2ccccc12,GI50,[1],31.3 µM (inactive)
same,GI50,[2],24.9 µM (inactive)
same,GI50,[3],26.3 µM (inactive)
same,GI50,[4],45.7 µM (inactive)
same,GI50,[5],> 100 µM (inactive)
same,GI50,[6],31.8 µM (inactive)
same,GI50,[7],76.4 µM (inactive)
same,GI50,[8],> 100 µM (inactive)
same,GI50,[9],28.4 µM (inactive)
same,GI50,[10],30 µM (inactive)
same,GI50,[11],42.6 µM
same,GI50,[12],34.8 µM (inactive)
same,GI50,[13],34.2 µM (inactive)
same,GI50,[14],86.5 µM (inactive)
same,GI50,[15],14.1 µM (inactive)
same,GI50,[16],> 100 µM (inactive)
same,GI50,[17],60 µM (inactive)
same,GI50,[18],6.75 µM (inactive)
same,GI50,[19],46.9 µM (inactive)
same,GI50,[20],93.8 µM (inactive)
same,GI50,[21],59.7 µM (inactive)
same,GI50,[22],83.6 µM (inactive)
same,GI50,[23],56.5 µM (inactive)
same,GI50,[24],73.6 µM (inactive)
same,GI50,[25],> 100 µM (inactive)
same,GI50,[26],26.8 µM (inactive)
same,GI50,[27],91.2 µM (inactive)
same,GI50,[28],30.3 µM (inactive)
same,GI50,[29],17.3 µM (inactive)
same,GI50,[30],15.4 µM (inactive)
same,GI50,[31],> 100 µM (inactive)
same,GI50,[32],48.6 µM (inactive)
same,GI50,[33],37.8 µM (inactive)
same,GI50,[34],82.2 µM (inactive)
same,GI50,[35],23.8 µM (inactive)
same,GI50,[36],32.7 µM (inactive)
same,GI50,[37],29 µM (inactive)
same,GI50,[38],31.2 µM (inactive)
same,GI50,[39],75.7 µM (inactive)
same,GI50,[40],62.7 µM (inactive)
same,GI50,[41],30.2 µM (inactive)
same,GI50,[42],28.2 µM (inactive)
same,GI50,[43],45.3 µM (inactive)
same,GI50,[44],24.9 µM (inactive)
same,GI50,[45],31.7 µM (inactive)
same,GI50,[46],72.6 µM (inactive)
same,GI50,[47],37.8 µM (inactive)
same,GI50,[48],38.4 µM (inactive)
same,GI50,[49],26.1 µM (inactive)
same,GI50,[50],68.5 µM (inactive)
same,GI50,[51],54.8 µM (inactive)
same,GI50,[52],36 µM (inactive)
Nc1ccc(-c2cssc2=S)cc1,GI50,[1],49 µM (inactive)
same,GI50,[2],50.6 µM (inactive)
same,GI50,[3],38.1 µM (inactive)
same,GI50,[4],36.1 µM (inactive)
same,GI50,[53],37.9 µM (inactive)
same,GI50,[6],42.2 µM (inactive)
same,GI50,[8],41.6 µM (inactive)
same,GI50,[9],29.2 µM (inactive)
same,GI50,[10],42 µM (inactive)
same,GI50,[11],45.5 µM
same,GI50,[54],18.6 µM (inactive)
same,GI50,[12],42.1 µM (inactive)
same,GI50,[13],56.2 µM (inactive)
same,GI50,[14],51.9 µM (inactive)
same,GI50,[15],36.3 µM (inactive)
same,GI50,[16],50.7 µM (inactive)
same,GI50,[17],3.21 µM (inactive)
same,GI50,[18],42 µM (inactive)
same,GI50,[19],41.1 µM (inactive)
same,GI50,[20],75.7 µM (inactive)
same,GI50,[21],52.1 µM (inactive)
same,GI50,[22],39.3 µM (inactive)
same,GI50,[23],35.1 µM (inactive)
same,GI50,[24],30.4 µM (inactive)
same,GI50,[25],1.17 µM (inactive)
same,GI50,[55],34 µM (inactive)
same,GI50,[56],56.5 µM (inactive)
same,GI50,[57],33.9 µM (inactive)
same,GI50,[27],26.9 µM (inactive)
same,GI50,[28],41.9 µM (inactive)
same,GI50,[30],49.1 µM (inactive)
same,GI50,[31],> 100 µM (inactive)
same,GI50,[32],45.7 µM (inactive)
same,GI50,[33],41.9 µM (inactive)
same,GI50,[34],0.836 µM (active)
same,GI50,[35],29.8 µM (inactive)
same,GI50,[36],42.7 µM (inactive)
same,GI50,[37],33.3 µM (inactive)
same,GI50,[38],52.8 µM (inactive)
same,GI50,[39],49.7 µM (inactive)
same,GI50,[40],27.1 µM (inactive)
same,GI50,[41],32.8 µM (inactive)
same,GI50,[42],44.6 µM (inactive)
same,GI50,[43],31.1 µM (inactive)
same,GI50,[44],> 100 µM (inactive)
same,GI50,[46],2.64 µM (inactive)
same,GI50,[47],54.8 µM (inactive)
same,GI50,[48],40.6 µM (inactive)
same,GI50,[49],40.7 µM (inactive)
same,GI50,[50],59.6 µM (inactive)
same,GI50,[51],26.9 µM (inactive)
same,GI50,[52],35.9 µM (inactive)
Cc1ccc(C)n1-c1ccccc1C1SCCCS1,GI50,[1],> 100 µM (inactive)
same,GI50,[58],> 100 µM (inactive)
same,GI50,[2],98.9 µM (inactive)
same,GI50,[3],> 100 µM (inactive)
same,GI50,[4],> 100 µM (inactive)
same,GI50,[53],> 100 µM (inactive)
same,GI50,[5],59.8 µM (inactive)
same,GI50,[6],> 100 µM (inactive)
same,GI50,[7],> 100 µM (inactive)
same,GI50,[8],> 100 µM (inactive)
same,GI50,[9],> 100 µM (inactive)
same,GI50,[10],> 100 µM (inactive)
same,GI50,[11],> 100 µM
same,GI50,[54],16.9 µM (inactive)
same,GI50,[12],50.8 µM (inactive)
same,GI50,[13],> 100 µM (inactive)
same,GI50,[14],53.3 µM (inactive)
same,GI50,[15],> 100 µM (inactive)
same,GI50,[16],> 100 µM (inactive)
same,GI50,[17],> 100 µM (inactive)
same,GI50,[18],> 100 µM (inactive)
same,GI50,[19],> 100 µM (inactive)
same,GI50,[20],57.1 µM (inactive)
same,GI50,[21],37.3 µM (inactive)
same,GI50,[22],49.9 µM (inactive)
same,GI50,[23],> 100 µM (inactive)
same,GI50,[24],> 100 µM (inactive)
same,GI50,[25],> 100 µM (inactive)
same,GI50,[55],> 100 µM (inactive)
same,GI50,[56],> 100 µM (inactive)
same,GI50,[26],> 100 µM (inactive)
same,GI50,[57],> 100 µM (inactive)
same,GI50,[27],> 100 µM (inactive)
same,GI50,[28],> 100 µM (inactive)
same,GI50,[29],> 100 µM (inactive)
same,GI50,[30],> 100 µM (inactive)
same,GI50,[31],> 100 µM (inactive)
same,GI50,[32],> 100 µM (inactive)
same,GI50,[33],> 100 µM (inactive)
same,GI50,[34],> 100 µM (inactive)
same,GI50,[35],> 100 µM (inactive)
same,GI50,[36],> 100 µM (inactive)
same,GI50,[37],54.1 µM (inactive)
same,GI50,[38],> 100 µM (inactive)
same,GI50,[39],> 100 µM (inactive)
same,GI50,[40],> 100 µM (inactive)
same,GI50,[41],> 100 µM (inactive)
same,GI50,[42],> 100 µM (inactive)
same,GI50,[43],> 100 µM (inactive)
same,GI50,[44],> 100 µM (inactive)
same,GI50,[45],84.5 µM (inactive)
same,GI50,[47],> 100 µM (inactive)
same,GI50,[48],> 100 µM (inactive)
same,GI50,[49],> 100 µM (inactive)
same,GI50,[50],> 100 µM (inactive)
same,GI50,[51],> 100 µM (inactive)
same,GI50,[52],> 100 µM (inactive)

# Reference: ChEMBL document CHEMBL1201862, “PubChem BioAssay data set” (2004)
